No end group written: not given here.
Tested on: spontaneously hypertensive rat (SHR)
Assay: Chronic development of arteriosclerosis (abdominal aorta morphometry, tail cuff blood pressure), chronic oral administration, SHR
Type: in vivo, spontaneously hypertensive rats (SHR)
Conditions: 0.9 mg/kg/day oral; weight taken at 12, 27 and 47 weeks old (data not shown)
Method: Five weeks old WKY and SHR were housed four to a cage. Four SHR and four WKY were orally administered 0.9 mg/kg/day of des-Aspartate-angiotensin I in 0.5 ml of saline daily for 47 weeks. Four SHR and another four WKY served as control animals and were administered 0.5 ml saline solution daily for 47 weeks. The weight of the animals were determined weekly till 12 weeks old, fortnightly till 27 weeks old and monthly till 47 weeks old. The dose of des-Aspartate-angiotensin I was adjusted to match the increase in weight as the animals grew. The dose of 0.9 mg/kg/day was calculated based on the maximum effective oral anti-cardiac hypertrophic dose (250 nmole per rat of average weight of 325 g) in the previous patent.
The blood pressure of the animals was determined by the tail cuff method on the 46th week of treatment. On the 47th week, animals were anaesthetized with chloral hydrate and a 3-cm section (measured from the left renal artery) of the abdominal aorta was removed and fixed in 4% paraformaldehyde and 1% glutaraldehyde. The aorta was processed for paraffin embedment. 10-μ thick sections were prepared and stained with toluidine blue. Fifty such sections, cut from the distal end of the artery, were used for quantitation. The area of the medial smooth muscle cells was quantitated morphometrically as described above. The area was converted to volume by multiplying by 10μ.

Which animal weight does the source give for RVYIHPFHL [des-Aspartate-angiotensin I] here?
The animal weight was “no significant effect”.

From patent publication US6100237A, “Use of des-Aspartate-angiotensin I as an agent for the treatment and prevention of neointima formation, restenosis, and arteriosclerosis” (National University of Singapore, priority 1997, dated 2000)
